Laboratory results as given in US5807900A, “Method for identifying compounds having increased activity for the repair of skin photodamage” (priority 1995, dated 1998).
Read-outs that look alike come from different tables or passages of the source.

Assays:
[1] = molecular target: human RAR-γ; experiment: Binding assay for human RAR-γ (displacement of 3H-retinoic acid); settings: 3H-retinoic acid displacement, mean of two or more experiments
Method: (§1) Binding Assay for Human RAR-α, RAR-β and RAR-γ
(§2) Binding assays were performed essentially as described in Apfel et al., supra. […] Extracts containing the receptors were used in a competitive binding assay which depends upon the ability of increasing concentrations of a retinoid to displace ^3 H-retinoic acid. In a typical assay, 0.2 to 0.4 picomoles of receptors were incubated in 0.2 ml of 50 mM Tris HCl, pH 7.4, 50 mM NaCl, 2 mM EDTA (binding buffer) containing 0.5% gelatin, 1% DMSO, 2-5 nM ^3 H-retinoic acid and various concentrations of unlabelled retinoids. After 3-5 hours at 22° C., 0.15 ml of chilled charcoal/dextran suspension (5% Norit A/0.5% dextran T-40 in binding buffer) were added for 15 min at 4° C. The tubes were centrifuged at 12,000 x g for 15 minutes and the supernates counted. Binding parameters were calculated from competition curves using the Ligand program.
(§3) Data are means of values obtained from two or more individual experiments, rounded off to two significant figures. […] When binding inhibition at 10,000 nM is less than 50%, >10,000 is indicated.

[2] = tested on: photodamaged skin; experiment: Measurement of photodamage repair in the hairless mouse model; format: in vivo, Hairless mice (female, HRS/J strain); settings: for Photodamage repair activity (scale 0 to 4): UVB-irradiated, topical in acetone three times per week, three doses
Excerpt: The ability of a composition of the invention to induce repair of photodamaged skin may be determined by any conventional means. One conventional method of determining the ability of a topical composition to repair photodamaged skin is the hairless mouse model described by Kligman et al., supra. […] In this model, repair is defined by the appearance of a zone of normalized dermis extending from the epidermis down to the layer of compressed elastin. The extent of repair is reflected by the width of this zone. […] The average width of the repair zone is then calculated by dividing the area by the length of the histological section that was measured.
The width of the repair zone is […] an activity value of 4.
Measurement of Photodamage Repair
Hairless mice (female, HRS/J strain, Jackson Labs, 5-7 weeks old at the start of the experiments) were housed in yellow light and irradiated three times per week with a bank of 8 Westinghouse Sunlamps (FS120) placed about 20 cm above the animals. Daily doses were 0.03 J/cm^2 for two weeks, 0.06 J/cm2 for two weeks and 0.08 J/cm2 thereafter. The radiation dose is controlled by an International Light Model IL844A Phototherapy Exposure Control and a model SEE240 detector.
To effect repair of the dermal damage, the UVB irradiation was discontinued and the animals were divided into groups of approximately eight and treated three times per week with various concentrations of the retinoids dissolved in acetone. Stock solutions are made up freshly every week in subdued light at concentrations such that the dose is delivered in 100 μl volume and applied topically with a plastic pipette to an area of about 10 cm^2 on the back of the animal. All dosing was done under yellow light. A control group treated with acetone alone was included.
Two-cm strips of dorsal skin were taken longitudinally down the center of the irradiated (and treated) area. Elastin fibers were stained with Luna's aldehyde fuchsin and collagen by Van Gieson. In this model, repair is defined by the appearance of a normalized dermis extending from the epidermis down to the layer of compressed elastin. The extent of repair is reflected by the width of this zone. […] Twenty-four fields each of which, at 100X magnification, represents a section of tissue 0.57 mm long, are examined and the area calculated. The results are reported as the average area per field in mm^2. Thus the average width of the repair zone can be obtained by dividing this average area by 0.57 mm. […] All microscopic fields are included in the calculations of average area (or width). Data are analyzed by Student's t-test.
Compounds are tested at three doses and an approximate ED50 calculated.

[3] = tested on: RAR-β; experiment: RAR-β transactivation assay (SeAP reporter, COS cells); format: cell-based, human; settings: for Transactivation % max (β): relative to all-trans-retinoic acid at same concentration (1,000 nM or 10,000 nM)
Method: (§4) Retinoid Receptor Transactivation Assays
(§5) Transactivation assays were performed essentially as described in Apfel et al., supra. For the RAR transcription activation test system, the secreted alkaline phosphatase gene (SeAP) is used as reporter. To have a screening system specific for the transfected receptor, chimeric receptors are used. These contain an estrogen receptor DNA binding domain and therefore recognize the estrogen response element (ERE) which no endogenous RAR's in mammalian cells will recognize.
(§6) The transactivation assay system has been adapted to 96-well plates and most steps are done by a robot. Briefly, on day 1 confluent COS cells are subcultured at an equivalent density onto 96-well plates in DMEM+10% charcoal stripped serum. On day 2 DNA is prepared for transfection by mixing the following: 10 μg vit-TK-SeAP reporter plasmid, 2 μg RAR expression plasmid, 2 μg transfection control plasmid and 30 μl Transfectam (lipopolyamine transfection reagent). Cells are washed twice with serum-free medium and DNA/transfectam mix added. After 1 hour medium is removed and replaced with growth medium containing test retinoids. On day 4 or 5 the culture supernatant is removed, heated to 65° for 5 min to inactivate nonspecific phosphatases, and diluted 1:10 with water. 20 μl samples are added to 100 μl of phosphatase substrate in buffer. After 1 hour at 37° the luminescence is measured in a 96-well luminometer.
(§7) 100 μl of β-galactosidase substrate is added to the adherent cells. Plates are incubated for 1 hour at 37° and the supernatants transferred to separate plates for quantitation of β-galactosidase activity by luminescence measurement. Transactivation results are expressed as the ratio of SeAP/β-galactosidase activity for each well to correct for well-to-well variation in transfection efficiency.
(§8) Data are means of values obtained from two or more individual experiments, rounded off to two significant figures. […] The maximum transactivation activity is determined from the plot where increasing dosage provides little or no additional activity, i.e., where the plot begins to level off. For active retinoids the highest concentration tested is 1000 nM.

[4] = tested on: human RAR-α; experiment: RAR-α transactivation assay (SeAP reporter, COS cells); format: cell-based; settings: for Transactivation % max (α): relative to all-trans-retinoic acid at same concentration (1,000 nM or 10,000 nM)
Method: as §4, §5, §6, §7, §8

[5] = molecular target: T1, human RAR-β (Homo sapiens, UniProt P10826); experiment: Binding assay for human RAR-β (displacement of 3H-retinoic acid); settings: 3H-retinoic acid displacement, mean of two or more experiments
T1 sequence (P10826 201-455 limits assumed): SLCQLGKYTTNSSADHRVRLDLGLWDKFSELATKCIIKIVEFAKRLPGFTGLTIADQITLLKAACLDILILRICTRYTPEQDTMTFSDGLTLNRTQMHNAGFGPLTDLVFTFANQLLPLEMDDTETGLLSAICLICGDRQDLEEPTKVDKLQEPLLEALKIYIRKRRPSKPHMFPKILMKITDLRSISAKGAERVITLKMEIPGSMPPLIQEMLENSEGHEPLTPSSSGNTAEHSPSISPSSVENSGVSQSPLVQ
Method: as §1, §2, §3

[6] = molecular target: T2, human RAR-α (Homo sapiens, UniProt P10276); experiment: Binding assay for human RAR-α (displacement of 3H-retinoic acid); settings: 3H-retinoic acid displacement, mean of two or more experiments
T2 sequence (P10276 201-462 limits assumed): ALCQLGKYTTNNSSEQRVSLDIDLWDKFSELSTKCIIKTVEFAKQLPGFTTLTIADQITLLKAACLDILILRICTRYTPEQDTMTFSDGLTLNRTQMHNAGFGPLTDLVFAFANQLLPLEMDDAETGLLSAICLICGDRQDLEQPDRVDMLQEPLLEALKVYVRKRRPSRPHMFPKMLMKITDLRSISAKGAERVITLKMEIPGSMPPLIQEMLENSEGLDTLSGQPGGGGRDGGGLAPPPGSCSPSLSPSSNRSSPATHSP

[7] = tested on: human RAR-γ; experiment: RAR-γ transactivation assay (SeAP reporter, COS cells); format: cell-based; settings: for Transactivation % max (γ): relative to all-trans-retinoic acid at same concentration (1,000 nM or 10,000 nM)
Method: as §4, §5, §6, §7, §8

[8] = COS cells, 50% of the compound's own maximum, set to highest concentration tested (usually 1000 nM) if no maximum reached, read-out: Transactivation ED50 (β)
[9] = COS cells, 50% of the compound's own maximum, set to highest concentration tested (usually 1000 nM) if no maximum reached, read-out: Transactivation ED50 (α)
[10] = RAR-γ, COS cells, 50% of the compound's own maximum, set to highest concentration tested (usually 1000 nM) if no maximum reached, read-out: Transactivation ED50 (γ)

Row | Structure (SMILES) | IC50 [1] [nM] | EC50 [3, 8] [nM] | EC50 [4, 9] [nM] | IC50 [5] [nM] | IC50 [6] [nM] | EC50 [7, 10] [nM] | Photodamage repair activity (scale 0 to 4) [2] | Transactivation % max (β) [3] [%] | Transactivation % max (α) [4] [%] | Transactivation % max (γ) ([7]; RAR-γ) [%] | EC50 ([3]; read-out: Transactivation ED50 (β), COS cells, 50% of the compound's own maximum, set to highest concentration tested (usually 1000 nM) if no maximum reached) [nM] | ED50 for photodamage repair ([2]; μg of test compound applied to 10 cm^2 of skin area, standard retinoid) [µg] | EC50 [7] [nM] | EC50 ([4]; read-out: Transactivation ED50 (α), COS cells, 50% of the compound's own maximum, set to highest concentration tested (usually 1000 nM) if no maximum reached) [nM]
1 | COc1cc(C)c(/C=C/C(C)=C/C=C/C(C)=C/C(=O)O)c(C)c1C [D, acitretin, reference compound] | […] |  |  |  |  |  | 0 |  |  |  |  |  |  | 
2 | CC1(C)CCC(C)(C)c2cc(C(=O)Nc3ccc(C(=O)O)cc3)ccc21 [J] |  |  |  |  |  |  | 0 |  |  |  |  |  |  | 
3 | CCCCCCCOc1cc2c(cc1/C(C)=C/c1ccc(C(=O)O)cc1)C(C)(C)CCS2(=O)=O [Compound L, p-[(E)-2-[3',4'-dihydro-4',4'-dimethyl-7'-(heptyloxy)-2'H-1-benzothiopyran-6'-yl]propenyl]benzoic acid 1',1'-dioxide, reference compound] | 4200 | 1000 | 1000 | 4700 | 70 | 1000 | 0 | 14 | 14 | 18 |  |  |  | 
4 | CC1(C)CCC(C)(C)c2cc(NC(=O)c3ccc(C(=O)O)cc3)ccc21 [K] |  |  |  |  |  |  | 0 |  |  |  |  |  |  | 
5 | C/C(=C\c1ccccc1)c1ccc2c(c1)C(C)(C)CCC2(C)C [H] | > 10000 | 1000 | 1000 | > 10000 | > 10000 | 1000 | 0 | 10 | 12 | 19 |  |  |  | 
8 | C/C(=C\c1ccc(C(=O)O)cc1)c1ccc2c(c1)C(C)(C)CCC2(C)C [F] |  |  |  |  |  |  | 1 (an ED50 of 100 μg) |  |  |  |  |  |  | 

Now from value to molecule, other results behind:

Row | IC50 [1] [nM] | EC50 [3, 8] [nM] | EC50 [4, 9] [nM] | IC50 [5] [nM] | IC50 [6] [nM] | EC50 [7, 10] [nM] | Structure (SMILES) | Photodamage repair activity (scale 0 to 4) [2] | Transactivation % max (β) [3] [%] | Transactivation % max (α) [4] [%] | Transactivation % max (γ) ([7]; RAR-γ) [%] | EC50 ([3]; read-out: Transactivation ED50 (β), COS cells, 50% of the compound's own maximum, set to highest concentration tested (usually 1000 nM) if no maximum reached) [nM] | ED50 for photodamage repair ([2]; μg of test compound applied to 10 cm^2 of skin area, standard retinoid) [µg] | EC50 [7] [nM] | EC50 ([4]; read-out: Transactivation ED50 (α), COS cells, 50% of the compound's own maximum, set to highest concentration tested (usually 1000 nM) if no maximum reached) [nM]
9 | 170 | 1000 | 1000 | 2900 | 1500 | 64 | CCCCCCc1cc2c(cc1/C=C/C=C/C(C)=C/C(=O)O)C(C)(C)CCC2(C)C [N] | 4 | 60 | 63 | 123 |  |  |  | 
10 | 670 | 150 | 1000 | 7600 | > 10000 | 29 | CCCCCOc1cc2c(cc1/C=C/c1ccc(C(=O)O)cc1)C(C)(C)CCC2(C)C [P] | 4 | 60 | 16 | 90 |  |  |  | 
11 | 210 | 88 | 1000 | 2300 | 2200 | 15 | CCCCCCc1cc2c(cc1/C=C/c1ccc(C(=O)O)cc1)C(C)(C)CCC2(C)C [M] | 4 | 62 | 24 | 36 |  |  |  | 
12 | 170 | 30 | 130 | 1800 | 1500 | 6 | CCCCc1cc2c(cc1/C=C/c1ccc(C(=O)O)cc1)C(C)(C)CCC2(C)C [O] | 4 | 88 | 56 | 105 |  |  |  | 
13 | > 10000 | 1000 | 1000 | > 10000 | > 10000 | 1000 | CCOC(=O)/C=C(C)/C=C/C=C(C)/C=C/c1c(C)cc(OC)c(C)c1C [E, etretinate, reference compound] | 0 | 21 | 14 | 20 |  |  |  | 
14 | > 10000 | 1000 | 1000 | > 10000 | > 10000 | 1000 | CCS(=O)(=O)c1ccc(/C=C(\C)c2ccc3c(c2)C(C)(C)CCC3(C)C)cc1 [I] | 3 (an ED50 of 1 μg or less (highly active)) | 21 | 10 | 21 |  |  |  | 
